In the supplement of paper PMC5412046:

How the values were obtained:
SB.mhdgc-1 [1] = assay: viability at highest tested concentration (MAXR) relative to DMSO; higher = less cytotoxic; details: SB.mhdgc-1 (hereditary c.1380delA CDH1 gastric cancer)
In short: (§1)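 Each entry is viability relative to DMSO, given either at the highest concentration tested or as a trapezoidal area under the curve. Gastric cancer cells from hereditary or sporadic patients (500 cells in 5 μL medium per 1536 well) received compound in DMSO at 11 threefold-diluted concentrations, 23 nL by pintool. Luminescence from CellTiter-Glo was read after 48 h.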

SB.msgc-1 [2] = assay: as above; details: SB.msgc-1 (sporadic gastric cancer)
In short: as §1

SB.mhdgc-1 [3] = assay: area under the dose-response curve of % viability (trapezoidal, 11 doses) (% viability x log10 concentration); higher = less cytotoxic; details: SB.mhdgc-1 (hereditary c.1380delA CDH1 gastric cancer)
In short: as §1

SB.msgc-1 [4] = assay: as above; details: SB.msgc-1 (sporadic gastric cancer)
In short: as §1

| SMILES | viability (SB.mhdgc-1 [1]) [%] | viability (SB.msgc-1 [2]) [%] | area under the dose-response curve (SB.mhdgc-1 [3]) | area under the dose-response curve (SB.msgc-1 [4]) |
| --- | --- | --- | --- | --- |
| Cc1ccc(C(=O)Nc2cccc(C(F)(F)F)c2)cc1-c1ccc2nc(NCCN3CCOCC3)ncc2c1 [AMG-47a] (top concentration 46.0829 µM) | 24.1 | 40 | 508 | 512 |
| COC1=C(OCCCN2CCOCC2)C=C3N=CC=C(OC4=CC=C(C=C4F)\C5=C\N=C(\NC6=CC=C(F)C=C6)N(C)C5=O)C3=C1 [AMG-51] (top concentration 46.0829 µM) | 1.34 | 1.73 | 457 | 469 |
| COc1ccc2c(OCc3nnc4ccc(-c5ccccc5)nn34)ccnc2c1 [AMG-208] (top concentration 46.0829 µM) | 100 | 97.7 | 558 | 527 |
| COC1=CC2=NC=CC(=C2C=C1)OC3=CN=C(NC(=O)C/4=C(C)/N(CC(C)(C)O)N(C4=O)C5=CC=CC=C5)C=C3 [AMG-458] (top concentration 46.0829 µM) | 77.2 | 51.3 | 455 | 427 |
| Cc1csc(-c2nnc(Nc3ccc(Oc4ncccc4-c4ccnc(N)n4)cc3)c3ccccc23)c1 [AMG-900] (top concentration 46.0829 µM) | 50.3 | 67.6 | 474 | 561 |
| CNc1nccc(-c2cccnc2Oc2cc(C(=O)Nc3cccc(C(F)(F)F)c3)ccc2C)n1 [AMG-Tie2-1] (top concentration 46.0829 µM) | 28.4 | 37.3 | 505 | 494 |
| N#Cc1ccc(Oc2ccc3c(c2)COB3O)cc1 [AN2728] (top concentration 46.0829 µM) | 59.1 | 74.8 | 518 | 581 |
| CN(C)c1nc(Cc2ccc(NC(=O)c3ccc(C(F)(F)F)cc3)cc2)nc(N(C)C)c1CC(=O)O [AP-761] (top concentration 46.0829 µM) | 113 | 113 | 490 | 542 |
| CN(C)c1nc(Cc2ccc(NC(=O)c3ccc4ccccc4c3)cc2)nc(Cl)c1CC(=O)O [AP-768] (top concentration 46.0829 µM) | 95.4 | 112 | 509 | 556 |
| COCC1(CO)C(=O)C2CCN1CC2 (stereo not drawn) [APR-246] (top concentration 46.0829 µM) | 2.52 | 85.1 | 407 | 548 |
| CC1=CC=C(C=C1)\C2=N\C3=CC=C(Cl)C=C3OC2 [AR7] (top concentration 46.0829 µM) | 39.3 | 35.4 | 506 | 446 |
| CC(C)[C@H](C(=O)Nc1ccc(C(=O)NO)cc1)c1ccccc1 [AR-42] (top concentration 46.0829 µM) | 33 | 5.4 | 391 | 317 |
| CNC(=O)c1ccc(N2C(=S)N(c3cnc(C#N)c(C(F)(F)F)c3)C(=O)C23CCC3)cc1F [ARN-509] (top concentration 46.0829 µM) | 2.3 | 0.835 | 297 | 317 |
| Cn1cnc2c(F)c(Nc3ccc(Br)cc3F)c(C(=O)NOCCO)cc21 [ARRY-162] (top concentration 46.0829 µM) | 67.2 | 80.5 | 403 | 500 |
| CON(C)C(=O)N1\N=C(/S[C@]1(CCCN)C2=CC=CC=C2)C3=CC(=CC=C3F)F [ARRY-520] (top concentration 46.0829 µM) | 3.77 | 50 | 287 | 223 |
| COc1cc(N2CCC(N3CCN(C)CC3)CC2)ccc1Nc1ncnc(Nc2ccccc2[S+](=O)([O-])C(C)C)n1 [ASP-3026] (top concentration 46.0829 µM) | 1.57 | 35.5 | 353 | 463 |
| C[C@H]1[C@@H](CC(C[C@H]2O[C@@H]3O[C@]4(C)CC[C@H]5[C@H](C)CC[C@@H]([C@H]2C)[C@@]35OO4)C[S+](=O)([O-])c2ccc(COC(=O)N(C)C)cc2)O[C@@H]2O[C@]3(C)CC[C@H]4[C@H](C)CC[C@@H]1[C@@]24OO3 [ASR-isobudimer-SO2Ph-4-CH2OC(O)NMe2] (top concentration 46.0829 µM) | 32.1 | 70.4 | 377 | 487 |
| C=CC(=O)Nc1ccc2ncnc(Nc3ccc(OCc4cccc(F)c4)c(Cl)c3)c2c1 [AST-1306] (top concentration 46.0829 µM) | 1.47 | 10.9 | 314 | 183 |
| CN[C@@H](C)C(=O)N[C@H]1CN(C(=O)CC(C)C)CC[C@H]2CC[C@@H](C(=O)NC(c3ccccc3)c3ccccc3)N2C1=O [AT-406] (top concentration 46.0829 µM) | 14.5 | 18.7 | 385 | 452 |
| O=C(NC1CCNCC1)c1n[nH]cc1NC(=O)c1c(Cl)cccc1Cl [AT-7519] (top concentration 46.0829 µM) | 67.2 | 40.8 | 411 | 403 |
| Clc1ccc(C2(c3ccc(-c4cn[nH]c4)cc3)CCNCC2)cc1 [AT-7867] (top concentration 46.0829 µM) | 3.91 | 38 | 425 | 457 |
| O=C(Nc1c[nH]nc1-c1nc2cc(CN3CCOCC3)ccc2[nH]1)NC1CC1 [AT-9283] (top concentration 46.0829 µM) | 51 | 42.1 | 388 | 455 |
